The text below walks through data of ChEMBL document CHEMBL1149035, “Verongamine, a novel bromotyrosine-derived histamine H3-antagonist from the marine sponge Verongula gigantea” (J Nat Prod, 1994).

Experiment [1] addresses Histamine H3 receptor (Cavia porcellus) (UniProt Q9JI35). The experiment can be described thus: Antagonist activity at guinea pig histamine H3 receptor assessed as blockade of (R)-alpha-methyl histamine-induced inhibition of EFS-stimulated guinea pig ileum contraction at 1 ug/mL. In kind it is functional, tissue-based.
Experiment [2] shares this target. The experiment can be described thus: Antagonist activity at guinea pig histamine H3 receptor assessed as blockade of clonidine-induced inhibition of EFS-stimulated guinea pig ileum contraction at 1 ug/mL. Format: functional, tissue-based.
Experiment [3] concerns the target Histamine H3 receptor (Cavia porcellus, UniProt Q9JI35). Nature of the experiment: Binding affinity to histamine H3 receptor in guinea pig brain membrane. In kind it is cell membranes.

Molecules are shown by their SMILES. Activity calls are given as the source filed them. The calls are words filed in the database; no cut-off is given here.

Sequence of Histamine H3 receptor (Cavia porcellus) (Q9JI35 whole entry): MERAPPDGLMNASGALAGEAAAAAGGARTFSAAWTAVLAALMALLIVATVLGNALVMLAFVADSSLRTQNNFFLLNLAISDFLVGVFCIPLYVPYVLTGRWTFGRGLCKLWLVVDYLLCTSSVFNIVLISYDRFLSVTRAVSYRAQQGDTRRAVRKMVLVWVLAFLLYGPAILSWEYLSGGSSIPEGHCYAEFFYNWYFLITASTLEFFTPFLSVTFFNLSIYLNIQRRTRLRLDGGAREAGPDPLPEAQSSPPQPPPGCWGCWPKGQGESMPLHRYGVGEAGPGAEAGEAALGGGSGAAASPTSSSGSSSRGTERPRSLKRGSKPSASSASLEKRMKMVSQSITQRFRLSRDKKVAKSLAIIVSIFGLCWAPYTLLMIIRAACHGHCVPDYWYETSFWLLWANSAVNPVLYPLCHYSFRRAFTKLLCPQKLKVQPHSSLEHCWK
Sequence of Histamine H3 receptor (Q9JI35 whole entry): as above

With `COC1=C(Br)C(O)C2(C=C1Br)CC(C(=O)NCCc1c[nH]cn1)=NO2` (centres undefined), the outcome in experiment [1] was inactive.
For the molecule `COc1ccc(C/C(=N\O)C(=O)NCCc2c[nH]cn2)cc1Br` [VERONGAMINE], the result in experiment [1] was Active. Moreover, in experiment [2], the outcome was inactive. In experiment [3], this molecule returned a 50% inhibitory concentration (IC50) of 500 nM.

For orientation: IC50 means the concentration at which inhibition is half-maximal. High values mean a need for much substance, low ones inhibition by little substance.
